Source: patent publication US20260098026A1, “M4 ACTIVATORS/MODULATORS AND USES THEREOF” (Cerevel Therapeutics, LLC, priority 2022, published 2026)

What was measured:
M4 mAChR = target: T1, M4 mAChR (Homo sapiens, UniProt P08173); test: cAMP TR-FRET assay with forskolin, M4-overexpressing CHO-K1 cells; format: cell-based; details: cAMP assay
T1 construct: expressed in transfected cells; host or cells: CHO-K1
T1 sequence (P08173 1-479): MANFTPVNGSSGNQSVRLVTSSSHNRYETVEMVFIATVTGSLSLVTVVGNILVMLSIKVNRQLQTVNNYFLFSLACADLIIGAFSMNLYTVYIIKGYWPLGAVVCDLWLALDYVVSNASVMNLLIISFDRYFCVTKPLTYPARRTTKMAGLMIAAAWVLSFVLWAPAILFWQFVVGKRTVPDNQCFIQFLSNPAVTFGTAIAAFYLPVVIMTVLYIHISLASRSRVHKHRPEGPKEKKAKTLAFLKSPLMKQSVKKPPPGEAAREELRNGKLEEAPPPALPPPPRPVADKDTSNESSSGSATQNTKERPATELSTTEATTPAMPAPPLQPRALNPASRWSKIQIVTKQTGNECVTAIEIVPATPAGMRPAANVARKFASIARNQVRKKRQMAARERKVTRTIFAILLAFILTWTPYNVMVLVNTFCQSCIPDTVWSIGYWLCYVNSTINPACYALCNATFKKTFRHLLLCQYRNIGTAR
In short: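 CHO-K1 cells overexpressing the receptor were stimulated with forskolin to raise cAMP, so that Gi-mediated agonist decreases could be measured. cAMP was quantified by TR-FRET competition between cellular cAMP and labelled donor for anti-cAMP antibody, giving potency and efficacy.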

[1] = target: T2, M3 muscarinic acetylcholine receptor (mAChR) (Homo sapiens, UniProt P20309); test: FLIPR calcium assay (Fluo 8), M3-overexpressing CHO-K1 cells; format: cell-based; details: FLIPR
T2 construct: expressed in transfected cells; host or cells: CHO-K1
In short: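 CHO-K1 cells overexpressing each human receptor seeded at 15,000 per well, grown overnight at 37° C., 5% CO2, then loaded with Fluo-8 for 30 min. Compounds in HBSS added and calcium response read on FLIPR; EC50 and Emax calculated per subtype.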

T2 sequence (P20309 whole entry): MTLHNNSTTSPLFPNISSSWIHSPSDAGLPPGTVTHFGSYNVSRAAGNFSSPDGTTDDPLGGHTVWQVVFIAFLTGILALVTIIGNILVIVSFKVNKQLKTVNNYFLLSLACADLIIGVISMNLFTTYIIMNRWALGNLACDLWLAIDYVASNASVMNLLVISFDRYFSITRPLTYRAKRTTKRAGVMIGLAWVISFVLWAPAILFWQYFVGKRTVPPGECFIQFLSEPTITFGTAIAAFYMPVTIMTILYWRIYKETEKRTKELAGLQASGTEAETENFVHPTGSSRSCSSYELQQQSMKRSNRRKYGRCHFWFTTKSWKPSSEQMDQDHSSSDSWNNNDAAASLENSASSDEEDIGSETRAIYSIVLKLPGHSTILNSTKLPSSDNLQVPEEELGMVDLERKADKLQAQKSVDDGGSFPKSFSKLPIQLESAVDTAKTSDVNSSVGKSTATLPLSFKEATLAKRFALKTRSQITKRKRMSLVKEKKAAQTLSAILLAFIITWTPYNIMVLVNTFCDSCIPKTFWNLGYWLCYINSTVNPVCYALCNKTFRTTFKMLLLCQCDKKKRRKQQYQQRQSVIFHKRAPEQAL

## CCOC(=O)N1CC2(CC[C@@H](N3CCN(c4cc(F)cnc4-c4cnn(C)c4)CC3)C2)C1 [Compound A190]
M4 mAChR
  Emax: 80 to 100%
[1]
  EC50: > 10 µM

## CCOC(=O)N1CC2(CC[C@@H](N3CCN(c4cc(F)cnc4-c4cnn(C(C)(C)C)c4)CC3)C2)C1 [Compound A191]
M4 mAChR
  Emax: 50 to 79.9%
[1]
  EC50: > 10 µM

## CCOC(=O)N1CC2(CC[C@@H](N3CCN(c4cc(F)cnc4-c4ccc5c(c4)CN(C)C5=O)CC3)C2)C1 [Compound A192]
M4 mAChR
  Emax: 80 to 100%
[1]
  EC50: > 10 µM

## CCOC(=O)N1CC2(CC[C@@H](N3CCN(c4cc(F)cnc4C4=CCOCC4)CC3)C2)C1 [Compound A193]
M4 mAChR
  Emax: 80 to 100%
[1]
  EC50: > 10 µM

## CCOC(=O)N1CC2(CC[C@@H](N3CCN(c4cc(F)cnc4-c4cnn(C(C)C)c4)CC3)C2)C1 [Compound A195]
M4 mAChR
  Emax: 50 to 79.9%
[1]
  EC50: > 10 µM

## CCOC(=O)N1CC2(CC[C@@H](N3CCN(c4cc(F)cnc4C4=CCN(C)CC4)CC3)C2)C1 [Compound A197]
M4 mAChR
  Emax: 80 to 100%
[1]
  EC50: > 10 µM

## CCOC(=O)N1CC2(CC[C@@H](N3CCN(c4cc(F)cnc4-c4ccn(C(F)F)n4)CC3)C2)C1 [Compound A198]
M4 mAChR
  Emax: 50 to 79.9%
[1]
  EC50: > 10 µM

## [2H]C([2H])([2H])n1ccc(-c2ncc(F)cc2N2CCN([C@@H]3CCC4(C3)CN(C(=O)OCC)C4)CC2)n1 [Compound A199]
M4 mAChR
  Emax: 19 to 49.9%
[1]
  EC50: > 10 µM

## CCOC(=O)N1CC2(CC[C@@H](N3CCN(c4cc(F)cnc4-c4ccn(C(C)(C)C)n4)CC3)C2)C1 [Compound A200]
M4 mAChR
  Emax: 19 to 49.9%
[1]
  EC50: > 10 µM

## CCOC(=O)N1CC2(CC[C@@H](N3CCN(c4cc(F)cnc4-c4ccc(=O)[nH]c4C)CC3)C2)C1 [Compound A201]
M4 mAChR
  Emax: 80 to 100%
[1]
  EC50: > 10 µM

## CCOC(=O)N1CC2(CC[C@@H](N3CCN(c4cc(F)cnc4-c4cc(C)c(=O)n(C)c4)CC3)C2)C1 [Compound A202]
M4 mAChR
  Emax: 19 to 49.9%
[1]
  EC50: > 10 µM

## CCOC(=O)N1CC2(CC[C@@H](N3CCN(c4cc(F)cnc4-c4cccn(C)c4=O)CC3)C2)C1 [Compound A203]
M4 mAChR
  Emax: 19 to 49.9%
[1]
  EC50: > 10 µM

## CCOC(=O)N1CC2(CC[C@@H](N3CCN(c4cc(Cl)cnc4-c4cnn(C)c4)CC3)C2)C1 [Compound A204]
M4 mAChR
  Emax: 80 to 100%
[1]
  EC50: > 10 µM

## CCOC(=O)N1CC2(CC[C@@H](N3CCN(c4cc(F)cnc4-c4cc(C)[nH]c(=O)c4)CC3)C2)C1 [Compound A205]
M4 mAChR
  Emax: 80 to 100%
[1]
  EC50: > 10 µM

## CCOC(=O)N1CC2(CC[C@@H](N3CCN(c4cc(Cl)cnc4-c4ccc(=O)n(C)c4)CC3)C2)C1 [Compound A207]
M4 mAChR
  Emax: 80 to 100%
[1]
  EC50: > 10 µM

## CCOC(=O)N1CC2(CC[C@@H](N3CCN(c4cc(Cl)cnc4-c4ccn(C)n4)CC3)C2)C1 [Compound A208]
M4 mAChR
  Emax: 50 to 79.9%
[1]
  EC50: > 10 µM

## CCOC(=O)N1CC2(CC[C@@H](N3CCN(c4cc(Cl)cnc4-c4ccn(C)c(=O)c4)CC3)C2)C1 [Compound A209]
M4 mAChR
  Emax: 80 to 100%
[1]
  EC50: > 10 µM

## CCOC(=O)N1CC2(CC[C@@H](N3CCN(c4cccnc4N4CCCCC4)CC3)C2)C1 [Compound A215]
M4 mAChR
  Emax: 80 to 100%
[1]
  EC50: > 10 µM

## CCOC(=O)N1CC2(CCC(N3CCN(c4cccnc4N4CCC(OC)CC4)CC3)C2)C1 (stereo not shown) [Compound A216]
M4 mAChR
  Emax: 80 to 100%
[1]
  EC50: > 10 µM

## CCOC(=O)N1CC2(CCC(N3CCN(c4cccnc4N4CCC(C#N)CC4)CC3)C2)C1 (stereo not shown) [Compound A217]
M4 mAChR
  Emax: 80 to 100%
[1]
  EC50: > 10 µM

## CCOC(=O)N1CC2(CC[C@@H](N3CCN(c4cc(F)cnc4-c4ccc(F)cn4)CC3)C2)C1 [Compound A218]
M4 mAChR
  Emax: 80 to 100%
[1]
  EC50: > 10 µM

## CCOC(=O)N1CC2(CC[C@@H](N3CCN(c4cc(Cl)cnc4-c4cnccn4)CC3)C2)C1 [Compound A221]
M4 mAChR
  Emax: 80 to 100%
[1]
  EC50: > 10 µM

## CCOC(=O)N1CC2(CC[C@@H](N3CCN(c4cc(F)cnc4-c4cnc(OC)cn4)CC3)C2)C1 [Compound A226]
M4 mAChR
  Emax: 80 to 100%
[1]
  EC50: > 10 µM

## CCOC(=O)N1CC2(CC[C@@H](N3CCN(c4cc(F)cnc4-c4ccccn4)CC3)C2)C1 [Compound A227]
M4 mAChR
  Emax: 80 to 100%
[1]
  EC50: > 10 µM

## CCOC(=O)N1CC2(CC[C@@H](N3CCN(c4cc(F)cnc4-c4ccc(C)cn4)CC3)C2)C1 [Compound A228]
M4 mAChR
  Emax: 80 to 100%
[1]
  EC50: > 10 µM

## CCOC(=O)N1CC2(CC[C@@H](N3CCN(c4cc(F)cnc4OC4CCOCC4)CC3)C2)C1 [Compound A229]
M4 mAChR
  Emax: 80 to 100%
[1]
  EC50: > 10 µM

## CCOC(=O)N1CC2(CC[C@@H](N3CCN(c4cc(F)cnc4-c4cn(C)nn4)CC3)C2)C1 [Compound A230]
M4 mAChR
  Emax: 80 to 100%
[1]
  EC50: > 10 µM

## CCOC(=O)N1CC2(CC[C@@H](N3CCN(c4cc(F)cnc4-c4cnc(C)cn4)CC3)C2)C1 [Compound A231]
M4 mAChR
  Emax: 50 to 79.9%
[1]
  EC50: > 10 µM

## CCOC(=O)N1CC2(CC[C@@H](N3CCN(c4cc(F)cnc4OC4CC5(COC5)C4)CC3)C2)C1 [Compound A233]
M4 mAChR
  Emax: 80 to 100%
[1]
  EC50: > 10 µM

## CCOC(=O)N1CC2(CC[C@@H](N3CCN(c4cc(F)cnc4-c4ccc(C#N)cn4)CC3)C2)C1 [Compound A234]
M4 mAChR
  Emax: 80 to 100%
[1]
  EC50: > 10 µM

## CCOC(=O)N1CC2(CC[C@@H](N3CCN(c4cc(F)cnc4-c4cnc(OC(F)F)cn4)CC3)C2)C1 [Compound A235]
M4 mAChR
  Emax: 80 to 100%
[1]
  EC50: > 10 µM

## CCOC(=O)N1CC2(CC[C@@H](N3CCN(c4cc(F)cnc4-c4ccc(C(F)(F)F)nn4)CC3)C2)C1 [Compound A243]
M4 mAChR
  Emax: 50 to 79.9%
[1]
  EC50: > 10 µM

## CCOC(=O)N1CC2(CC[C@@H](N3CCN(c4cccnc4-c4cnccn4)CC3)C2)C1 [Compound A244]
M4 mAChR
  Emax: 80 to 100%
[1]
  EC50: > 10 µM

## CCOC(=O)N1CC2(CC[C@@H](N3CCN(c4cc(Cl)cnc4-c4cccnn4)CC3)C2)C1 [Compound A245]
M4 mAChR
  Emax: 80 to 100%
[1]
  EC50: > 10 µM

## CCOC(=O)N1CC2(CC[C@@H](N3CCN(c4cc(F)cnc4-n4cc(C)nn4)CC3)C2)C1 [Compound A246]
M4 mAChR
  Emax: 80 to 100%
[1]
  EC50: > 10 µM

## CCOC(=O)N1CC2(CC[C@@H](N3CCN(c4cc(Cl)cnc4-n4cc(C)nn4)CC3)C2)C1 [Compound A247]
M4 mAChR
  Emax: 80 to 100%
[1]
  EC50: > 10 µM

## CCOC(=O)N1CC2(CC[C@@H](N3CCN(c4cc(Cl)cnc4-c4nncs4)CC3)C2)C1 [Compound A249]
M4 mAChR
  Emax: 80 to 100%
[1]
  EC50: > 10 µM

## CCOC(=O)N1CC2(CC[C@@H](N3CCN(c4cc(F)cnc4-c4cnc(C(F)(F)F)cn4)CC3)C2)C1 [Compound A250]
M4 mAChR
  Emax: 80 to 100%
[1]
  EC50: > 10 µM

## CCOC(=O)N1CC2(CC[C@@H](N3CCN(c4cc(Cl)cnc4-c4ccc(C)nn4)CC3)C2)C1 [Compound A251]
M4 mAChR
  Emax: 80 to 100%
[1]
  EC50: > 10 µM

## CCOC(=O)N1CC2(CC[C@@H](N3CCN(c4cc(Cl)cnc4-c4ccc(F)cn4)CC3)C2)C1 [Compound A252]
M4 mAChR
  Emax: 80 to 100%
[1]
  EC50: > 10 µM

## CCOC(=O)N1CC2(CC[C@@H](N3CCN(c4cc(F)cnc4-c4cnc(C(F)F)cn4)CC3)C2)C1 [Compound A253]
M4 mAChR
  Emax: 80 to 100%
[1]
  EC50: > 10 µM

## CCOC(=O)N1CC2(CC[C@@H](N3CCN(c4cc(C)cnc4-c4cnccn4)CC3)C2)C1 [Compound A255]
M4 mAChR
  Emax: 80 to 100%
[1]
  EC50: > 10 µM

## CCOC(=O)N1CC2(CC[C@@H](N3CCN(c4cc(Cl)cnc4-c4cn(C)nn4)CC3)C2)C1 [Compound A256]
M4 mAChR
  Emax: 80 to 100%
[1]
  EC50: > 10 µM

## CCOC(=O)N1CC2(CC[C@@H](N3CCN(c4cc(Cl)cnc4-c4cnn(C(C)C)n4)CC3)C2)C1 [Compound A258]
M4 mAChR
  Emax: 50 to 79.9%
[1]
  EC50: > 10 µM
